Measured values published in US20260265227A1, “AMIDE PRODRUGS AND USES THEREOF” (Autobahn Therapeutics, Inc., priority 2022, published 2026).

Target: T1, recombinant human FAAH (rhFAAH) (Homo sapiens, UniProt O00519)
T1 construct: purchased Cayman Chemical (Ann Arbor, MI, USA)
T1 sequence (O00519 1-579): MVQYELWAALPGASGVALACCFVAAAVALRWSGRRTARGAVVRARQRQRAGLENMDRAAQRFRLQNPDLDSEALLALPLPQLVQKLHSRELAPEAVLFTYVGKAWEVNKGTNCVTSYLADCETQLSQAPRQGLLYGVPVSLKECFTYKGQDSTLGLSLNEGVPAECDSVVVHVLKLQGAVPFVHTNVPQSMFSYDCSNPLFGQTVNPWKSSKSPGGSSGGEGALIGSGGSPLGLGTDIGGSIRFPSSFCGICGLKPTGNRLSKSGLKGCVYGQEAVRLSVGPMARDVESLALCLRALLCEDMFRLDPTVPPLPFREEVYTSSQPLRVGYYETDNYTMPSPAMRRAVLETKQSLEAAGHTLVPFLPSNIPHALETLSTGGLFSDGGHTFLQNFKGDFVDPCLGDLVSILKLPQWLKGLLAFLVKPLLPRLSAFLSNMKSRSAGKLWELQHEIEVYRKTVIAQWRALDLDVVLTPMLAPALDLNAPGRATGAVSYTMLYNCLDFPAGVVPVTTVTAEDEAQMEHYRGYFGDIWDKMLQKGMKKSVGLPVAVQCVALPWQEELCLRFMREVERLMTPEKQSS
Assay: FAAH Substrate Evaluation (formation of acid metabolite from amide prodrug)
Format: biochemical
Settings: 0.5 ng/μL rhFAAH, 1 μM test compound, Tris-EDTA buffer pH 8.0, 0.1% BSA, room temperature, 0-60 minutes, LC-MS/MS
Method: Purified recombinant human FAAH (rhFAAH) was purchased from Cayman Chemical (Ann Arbor, MI, USA). The total volume for each incubation was 400 μL containing a final 0.5 ng/μL rhFAAH, 1 μM test compound, 1.25% ethanol or 1 μM PF-3845 (FAAH inhibitor), and 0.1% bovine serum albumin in Tris-EDTA buffer at pH 8.0). The positive control was LL-341001. The incubation was conducted at the room temperature. At 0, 5, 15, 30 and 60 minutes, an aliquot of 30 μL reaction mixtures was removed and mixed with 300 μL acetonitrile containing 5 ng/mL terfenadine and 10 ng/ml tolbutamide as internal standards to quench the reaction. The resulting mixture was centrifuged at 4000 rpm, 4° C. for 15 minutes, and 100 μL supernatant was ready for LC-MS/MS analysis to measure the formation of acid metabolite.
Acquity Ultra Performance LC system from Waters was used for sample analysis. The chromatography was performed on a reverse phase Kinetex 2.6 μm C18 column, 2.1×30 mm, 100 Å. The mobile phase A comprised of 0.1% formic acid in water and mobile phase B comprised of 0.1% formic acid in acetonitrile with a 2-min run time at the flow rate of 0.8 mL/min for the acid metabolite from positive control or a 1.5 min run time at the flow rate of 0.9 mL/min for the acid metabolite of test compounds. The mass spectrometer (API-5500 and API Q Trap 4000 Applied Biosystems/MDS SCIEX Instruments, Framingham, MA, USA) was operated under ESI positive or negative ion MRM mode.
The formation of acid metabolite was monitored and quantified using one calibration point of 1 μM. The observed rate constant (ke) for the acid metabolite formation was calculated by plotting the metabolite concentration versus time of incubation with the slope being ke and is shown in Table 1.

| SMILES | ke (observed rate constant for the acid metabolite formation) |
| --- | --- |
| C[C@@H](CO)NC(=O)C1CN(CC2=Cc3ccc(OCCCC(F)(F)F)cc3C[C@@H]2C)C1 [Compound 2, N—((S)-1-hydroxypropan-2-yl)-1-(((S)-3-methyl-6-(4,4,4-trifluorobutoxy)-3,4-dihydronaphthalen-2-yl)methyl)azetidine-3-carboxamide] | B (ke is less than 1.0 and more than 0) |
| C[C@H]1Cc2cc(OCCCC(F)(F)F)ccc2C=C1CN1CC(C(=O)Nc2cncnc2)C1 [Compound 3, (S)-1-((3-methyl-6-(4,4,4-trifluorobutoxy)-3,4-dihydronaphthalen-2-yl)methyl)-N-(pyrimidin-5-yl)azetidine-3-carboxamide] | A (ke is more than or equal to 1.0) |
| C[C@H]1Cc2cc(OCCCC(F)(F)F)ccc2C=C1CN1CC(C(=O)Nc2ccnnc2)C1 [Compound 4, (S)-1-((3-methyl-6-(4,4,4-trifluorobutoxy)-3,4-dihydronaphthalen-2-yl)methyl)-N-(pyridazin-4-yl)azetidine-3-carboxamide] | A (ke is more than or equal to 1.0) |
| COCCNC(=O)C1CN(CC2=Cc3ccc(OCCCC(F)(F)F)cc3C[C@@H]2C)C1 [Compound 5, (S)—N-(2-methoxyethyl)-1-((3-methyl-6-(4,4,4-trifluorobutoxy)-3,4-dihydronaphthalen-2-yl)methyl)azetidine-3-carboxamide] | A (ke is more than or equal to 1.0) |
| C[C@H]1Cc2cc(OCCCC(F)(F)F)ccc2C=C1CN1CC(C(=O)NCC(C)(C)C)C1 [Compound 6, (S)-1-((3-methyl-6-(4,4,4-trifluorobutoxy)-3,4-dihydronaphthalen-2-yl)methyl)-N-neopentylazetidine-3-carboxamide] | B (ke is less than 1.0 and more than 0) |
| CC(C)CNC(=O)C1CN(CC2=Cc3ccc(OCCCC(F)(F)F)cc3C[C@@H]2C)C1 [Compound 7, (S)—N-isobutyl-1-((3-methyl-6-(4,4,4-trifluorobutoxy)-3,4-dihydronaphthalen-2-yl)methyl)azetidine-3-carboxamide] | A (ke is more than or equal to 1.0) |
| CC[C@@H](C)NC(=O)C1CN(CC2=Cc3ccc(OCCCC(F)(F)F)cc3C[C@@H]2C)C1 [Compound 8, N—((R)-sec-butyl)-1-(((S)-3-methyl-6-(4,4,4-trifluorobutoxy)-3,4-dihydronaphthalen-2-yl)methyl)azetidine-3-carboxamide] | A (ke is more than or equal to 1.0) |
| C[C@H]1Cc2cc(OCCCC(F)(F)F)ccc2C=C1CN1CC(C(=O)N(C)CC(C)(C)C)C1 [Compound 9, (S)—N-methyl-1-((3-methyl-6-(4,4,4-trifluorobutoxy)-3,4-dihydronaphthalen-2-yl)methyl)-N-neopentylazetidine-3-carboxamide] | C (ke is 0) |
| CCCNC(=O)C1CN(CC2=Cc3ccc(OCCCC(F)(F)F)cc3C[C@@H]2C)C1 [Compound 10, (S)-1-((3-methyl-6-(4,4,4-trifluorobutoxy)-3,4-dihydronaphthalen-2-yl)methyl)-N-propylazetidine-3-carboxamide] | A (ke is more than or equal to 1.0) |
| C[C@H]1Cc2cc(OCCCC(F)(F)F)ccc2C=C1CN1CC(C(=O)N(C)C)C1 [Compound 11, (S)—N,N-dimethyl-1-((3-methyl-6-(4,4,4-trifluorobutoxy)-3,4-dihydronaphthalen-2-yl)methyl)azetidine-3-carboxamide] | B (ke is less than 1.0 and more than 0) |
| CNC(=O)C1CN(CC2=Cc3ccc(OCCCC(F)(F)F)cc3C[C@@H]2C)C1 [Compound 12, (S)—N-methyl-1-((3-methyl-6-(4,4,4-trifluorobutoxy)-3,4-dihydronaphthalen-2-yl)methyl)azetidine-3-carboxamide] | B (ke is less than 1.0 and more than 0) |
| C[C@H]1Cc2cc(OCCCC(F)(F)F)ccc2C=C1CN1CC(C(=O)Nc2cccnc2)C1 [Compound 13, (S)-1-((3-methyl-6-(4,4,4-trifluorobutoxy)-3,4-dihydronaphthalen-2-yl)methyl)-N-(pyridin-3-yl)azetidine-3-carboxamide] | A (ke is more than or equal to 1.0) |
| C[C@H](CO)NC(=O)C1CN(CC2=Cc3ccc(OCCCC(F)(F)F)cc3C[C@@H]2C)C1 [Compound 14, N—((R)-1-hydroxypropan-2-yl)-1-(((S)-3-methyl-6-(4,4,4-trifluorobutoxy)-3,4-dihydronaphthalen-2-yl)methyl)azetidine-3-carboxamide] | B (ke is less than 1.0 and more than 0) |
| C[C@H](O)CNC(=O)C1CN(CC2=Cc3ccc(OCCCC(F)(F)F)cc3C[C@@H]2C)C1 [Compound 15, N—((S)-2-hydroxypropyl)-1-(((S)-3-methyl-6-(4,4,4-trifluorobutoxy)-3,4-dihydronaphthalen-2-yl)methyl)azetidine-3-carboxamide] | B (ke is less than 1.0 and more than 0) |
| CCCN(C)C(=O)C1CN(CC2=Cc3ccc(OCCCC(F)(F)F)cc3C[C@@H]2C)C1 [Compound 16, (S)—N-methyl-1-((3-methyl-6-(4,4,4-trifluorobutoxy)-3,4-dihydronaphthalen-2-yl)methyl)-N-propylazetidine-3-carboxamide] | C (ke is 0) |
| CC[C@H](C)NC(=O)C1CN(CC2=Cc3ccc(OCCCC(F)(F)F)cc3C[C@@H]2C)C1 [Compound 17, N—((S)-sec-butyl)-1-(((S)-3-methyl-6-(4,4,4-trifluorobutoxy)-3,4-dihydronaphthalen-2-yl)methyl)azetidine-3-carboxamide] | B (ke is less than 1.0 and more than 0) |
| COC[C@H](C)NC(=O)C1CN(CC2=Cc3ccc(OCCCC(F)(F)F)cc3C[C@@H]2C)C1 [Compound 18, N—((S)-1-methoxypropan-2-yl)-1-(((S)-3-methyl-6-(4,4,4-trifluorobutoxy)-3,4-dihydronaphthalen-2-yl)methyl)azetidine-3-carboxamide] | B (ke is less than 1.0 and more than 0) |
| C[C@H]1Cc2cc(OCCCC(F)(F)F)ccc2C=C1CN1CC(C(=O)NCC2CC2)C1 [Compound 19, (S)—N-(cyclopropylmethyl)-1-((3-methyl-6-(4,4,4-trifluorobutoxy)-3,4-dihydronaphthalen-2-yl)methyl)azetidine-3-carboxamide] | A (ke is more than or equal to 1.0) |
| C[C@H]1Cc2cc(OCCCC(F)(F)F)ccc2C=C1CN1CC(C(=O)NC2CC2)C1 [Compound 20, (S)—N-cyclopropyl-1-((3-methyl-6-(4,4,4-trifluorobutoxy)-3,4-dihydronaphthalen-2-yl)methyl)azetidine-3-carboxamide] | A (ke is more than or equal to 1.0) |
| C[C@@H](O)CNC(=O)C1CN(CC2=Cc3ccc(OCCCC(F)(F)F)cc3C[C@@H]2C)C1 [Compound 21, N—((R)-2-hydroxypropyl)-1-(((S)-3-methyl-6-(4,4,4-trifluorobutoxy)-3,4-dihydronaphthalen-2-yl)methyl)azetidine-3-carboxamide] | B (ke is less than 1.0 and more than 0) |
| C[C@H]1Cc2cc(OCCCC(F)(F)F)ccc2C=C1CN1CC(C(=O)NCCCF)C1 [Compound 22, (S)-N-(3-fluoropropyl)-1-((3-methyl-6-(4,4,4-trifluorobutoxy)-3,4-dihydro-naphthalen-2-yl)methyl)azetidine-3-carboxamide] | B (ke is less than 1.0 and more than 0) |
| C[C@H]1Cc2cc(OCCCC(F)(F)F)ccc2C=C1CN1CC(C(=O)Nc2ccncc2)C1 [Compound 24, (S)-1-((3-methyl-6-(4,4,4-trifluorobutoxy)-3,4-dihydronaphthalen-2-yl)methyl)-N-(pyridin-4-yl) azetidine-3-carboxamide] | A (ke is more than or equal to 1.0) |
